Laboratory results taken from patent publication EP4582413A1, “ARYLTETRAHYDROPYRIDINE COMPOUND AND PEST CONTROL AGENT” (priority 2022, dated 2024).

How the values were obtained:
Assay type in all cases: in vivo
[1] = tested on: green peach aphids (Myzus persicae); test: Insecticidal test for green peach aphids; settings: Myzus persicae, foliar, 144 h; 500 ppm chemical solution sprinkled (2.5 mg/cm^2), wingless imagoes on leaf disc, six days, 25°C; read-out: death rate
Protocol: Wet absorbent cotton was laid on each glass dish having an inner diameter of 3 cm, a Chinese olive leaf cut into a circle having a diameter of 3 cm was placed thereon, and four wingless green peach aphids (Myzus persicae) imagoes were released. After a day, a 10% by mass emulsion of the presently invented compound prepared according to the above formulation example for an emulsion was diluted with water containing a spreader to prepare a chemical solution having a concentration of 500 ppm. The chemical solution prepared was sprinkled (2.5 mg/cm^2) with a rotary tower sprinkler, and the dishes were capped and accommodated in a thermostatic room at 25°C. […] The test was carried out in duplicate.

[2] = tested on: diamondback moths (Plutella xylostella); test: Insecticidal test for diamondback moths; settings: Plutella xylostella, 144 h; 500 ppm chemical solution, leaves soaked, third-instar larvae, six days, 25°C; read-out: death rate
Outline: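 Leaves dipped about 10 s in a 500 ppm aqueous dilution of an emulsion formulation with spreader, then air-dried. Five third-instar larvae released per dish and held at 25 °C. Tested in duplicate.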

[3] = tested on: kennel ticks (Rhipicephalus sanguineus); test: Effect test for kennel ticks; settings: 10 µg/cm^2 thin film in glass container, protonymphs, two days, 25°C; for mortality at 10 µg/cm2: Rhipicephalus sanguineus, 48 h, read-out: death rate
Protocol: In 1 ml of acetone, 1 mg of the presently invented compound was dissolved to prepare a chemical solution having a concentration of 1000 ppm. The bottom surface and side surface of each glass container having an inner wall surface area of 25 cm^2 were coated with 250 µl of the chemical solution, and acetone was then volatilized to form a thin film of the compound on the inner wall of the glass container.
Into each of the treated glass containers, five kennel ticks (Rhipicephalus sanguineus) protonymphs (mixed-sex) were released, and the glass containers were capped and accommodated in a thermostatic room at 25°C.

[4] = tested on: cat fleas (Ctenocephalides felis); test: whole plant or invertebrate; settings: 72 h, read-out: death rate
Outline: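 Glass containers (25 cm² inner surface) were coated with 250 µl of a 1000 ppm acetone solution, and the acetone was evaporated to leave a dry film. Five mixed-sex adult fleas were confined per container at 25°C. Mortality was scored after 3 days.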

[5] = tested on: western flower thrips (Frankliniella occidentalis); test: Insecticidal activity against western flower thrips; settings: Frankliniella occidentalis, 48 h; 500 ppm chemical solution sprinkled (2.5 mg/cm^2), larvae on common bean leaf, after 2 days; read-out: death rate
Outline: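 Bean leaf squares on wet filter paper inoculated with 20 larvae. Compound emulsion diluted with spreader-containing water to 500 ppm and sprayed at 2.5 mg/cm^2 by rotary tower. Run in duplicate.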

[6] = tested on: brown rice planthoppers (Nilaparvata lugens); test: Insecticidal test for brown rice planthoppers; settings: Nilaparvata lugens, 144 h; 500 ppm chemical solution, rice leaf sheaths soaked, third-instar larvae, six days, 25°C; read-out: death rate
Outline: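 Rice leaf sheaths dipped ~10 s in 500 ppm compound solution (emulsion diluted in water with spreader), air-dried, then infested with five third-instar larvae per tube at 25 °C. Mortality scored after 6 days, death rate calculated, in duplicate.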

| SMILES | mortality at 500 µg/mL [1] [%] | mortality at 500 µg/mL [2] [%] | mortality at 10 µg/cm2 [3] [%] | mortality at 10 µg/cm2 [4] [%] | mortality at 500 µg/mL [5] [%] | mortality at 500 µg/mL [6] [%] | death rate [3] [%] |
| --- | --- | --- | --- | --- | --- | --- | --- |
| O=C(Nc1ccc(F)cc1)C1=C(O)CC(c2ccc(C(F)(F)F)c(-c3cccc(F)c3)c2)NC1=O (stereo not shown) [1-006] | ≥ 90 | ≥ 90 | ≥ 50 | ≥ 50 |  |  |  |
| O=C(Nc1ccc(F)cc1)C1=C(O)CC(c2ccc(C(F)(F)F)c(-c3ccc(F)cc3)c2)NC1=O (stereo not shown) [1-007] | ≥ 90 | ≥ 90 | ≥ 50 | ≥ 50 | ≥ 90 |  |  |
| O=C(Nc1ccc(F)cc1)C1=C(O)CC(c2nc(-c3ccc(F)c(F)c3)no2)NC1=O (stereo not shown) [3-027] | ≥ 90 | ≥ 90 |  | ≥ 50 | ≥ 90 | ≥ 90 |  |
| O=C(Nc1ccc(F)cc1)C1=C(O)CC(c2nc(-c3cccc(Br)c3)no2)NC1=O (stereo not shown) [3-028] | ≥ 90 | ≥ 90 |  | ≥ 50 | ≥ 90 | ≥ 90 |  |
| O=C(Nc1cc(F)ccn1)C1=C(O)CC(c2nc(-c3cccc(F)c3F)no2)NC1=O (stereo not shown) [3-049] | ≥ 90 | ≥ 90 |  | ≥ 50 | ≥ 90 | ≥ 90 |  |
| O=C(Nc1cc(F)ccn1)C1=C(O)CC(c2nc(-c3ccccc3)no2)NC1=O (stereo not shown) [3-055] | ≥ 90 | ≥ 90 |  | ≥ 50 | ≥ 90 | ≥ 90 |  |
| O=C(Nc1cc(F)ccn1)C1=C(O)CC(c2nc(-c3ccc(F)cc3)no2)NC1=O (stereo not shown) [3-056] | ≥ 90 | ≥ 90 |  | ≥ 50 | ≥ 90 | ≥ 90 |  |
| O=C(Nc1cc(F)ccn1)C1=C(O)CC(c2nc(-c3ccccc3F)no2)NC1=O (stereo not shown) [3-058] | ≥ 90 | ≥ 90 |  | ≥ 50 | ≥ 90 | ≥ 90 |  |
| O=C(Nc1ccc(F)cn1)C1=C(O)CC(c2nc(-c3ccc(O)nc3)no2)NC1=O (stereo not shown) [3-101] |  |  |  |  |  |  | ≥ 50 |
| O=C(Nc1ccc(F)cc1)C1=C(O)CC(c2nc(-c3ccc(F)cc3F)no2)NC1=O (stereo not shown) [3-131] | ≥ 90 | ≥ 90 |  | ≥ 50 | ≥ 90 | ≥ 90 |  |
| O=C(Nc1ccccn1)C1=C(O)CC(c2nc(-c3ccc(F)cc3F)no2)NC1=O (stereo not shown) [3-132] | ≥ 90 | ≥ 90 |  | ≥ 50 | ≥ 90 | ≥ 90 |  |
| O=C(Nc1cc(F)ccn1)C1=C(O)CC(c2nc(-c3c(F)cc(F)cc3F)no2)NC1=O (stereo not shown) [3-144] | ≥ 90 | ≥ 90 |  | ≥ 50 | ≥ 90 | ≥ 90 |  |
| O=C(Nc1c(F)cccc1F)C1=C(O)CC(c2nc(-c3ccncc3F)no2)NC1=O (stereo not shown) [3-166] | ≥ 90 | ≥ 90 | ≥ 50 | ≥ 50 |  | ≥ 90 |  |
| Cc1cccnc1NC(=O)C1=C(O)CC(c2nc(-c3ccc(F)cc3F)no2)NC1=O (stereo not shown) [3-174] | ≥ 90 | ≥ 90 |  | ≥ 50 | ≥ 90 | ≥ 90 |  |
| O=C(Nc1ccccn1)C1=C(O)CC(c2nc(-c3ccccc3F)no2)NC1=O (stereo not shown) [3-186] |  | ≥ 90 | ≥ 50 | ≥ 50 | ≥ 90 | ≥ 90 |  |
| O=C(Nc1cnccc1Cl)C1=C(O)CC(c2nc(-c3ccncc3Cl)no2)NC1=O (stereo not shown) [3-228] | ≥ 90 | ≥ 90 |  | ≥ 50 | ≥ 90 | ≥ 90 |  |
| O=C(Nc1cc(Br)ccn1)C1=C(O)CC(c2nc(-c3ccncc3Cl)no2)NC1=O (stereo not shown) [3-232] | ≥ 90 | ≥ 90 |  | ≥ 50 | ≥ 90 | ≥ 90 |  |
| O=C(Nc1ccc(F)cn1)C1=C(O)CC(c2nc(-c3ccncc3Cl)no2)NC1=O (stereo not shown) [3-236] | ≥ 90 | ≥ 90 |  | ≥ 50 | ≥ 90 | ≥ 90 |  |
| O=C(Nc1nccs1)C1=C(O)CC(c2nc(-c3ccncc3F)no2)NC1=O (stereo not shown) [3-246] | ≥ 90 | ≥ 90 |  | ≥ 50 | ≥ 90 | ≥ 90 |  |
| O=C(Nc1ccc(F)cn1)C1=C(O)CC(c2nc(-c3snc(Cl)c3Cl)no2)NC1=O (stereo not shown) [3-254] | ≥ 90 | ≥ 90 |  | ≥ 50 | ≥ 90 | ≥ 90 |  |
| O=C(Nc1cnccn1)C1=C(O)CC(c2nc(-c3ccc(F)nc3)no2)NC1=O (stereo not shown) [3-257] | ≥ 90 | ≥ 90 |  | ≥ 50 | ≥ 90 | ≥ 90 |  |
| O=C(Nc1ccc(F)cn1)C1=C(O)CC(c2nc(-c3ncco3)no2)NC1=O (stereo not shown) [3-265] | ≥ 90 | ≥ 90 |  | ≥ 50 | ≥ 90 | ≥ 90 |  |
| O=C(Nc1cnc(Cl)cn1)C1=C(O)CC(c2nc(-c3ccnc(Cl)c3)no2)NC1=O (stereo not shown) [3-268] | ≥ 90 | ≥ 90 |  | ≥ 50 | ≥ 90 | ≥ 90 |  |
| O=C(Nc1cnc(Cl)cn1)C1=C(O)CC(c2nc(-c3ccc(F)nc3)no2)NC1=O (stereo not shown) [3-269] | ≥ 90 | ≥ 90 |  | ≥ 50 | ≥ 90 | ≥ 90 |  |
